Series [1] deals with Plasmodium falciparum. In words: Antimalarial activity against chloroquine-resistant Plasmodium falciparum K1 infected in erythroctes incubated for 72 hrs by SYBR green 1 based spectrofluorometer. The class given is functional, organism-based, Erythrocyte.
For series [2], the system named is Plasmodium falciparum. As to the kind of experiment: Antimalarial activity against chloroquine-sensitive Plasmodium falciparum 3D7 infected in erythroctes incubated for 72 hrs by SYBR green 1 based spectrofluorometer. The format is functional, organism-based, Erythrocyte.
Series [3] is described as follows: Cytotoxicity against mouse J774.A1 cells. The format is toxicity, cell-based.
[4] abbreviates: Plasmodium falciparum, K1, Erythrocyte, 72 h.
Where [5] appears, read: Plasmodium falciparum, 3D7, Erythrocyte, 72 h.

Bounds are passed on as bounds.

As for `CCOC(=O)C1=C(C)NC2=C(C(=O)OC(c3ccc(OC)c(OC)c3)C2)C1c1ccc(C)cc1` (stereo in doubt; 8A), the results for the EC50 in series [1] (erythrocyte), in series [2] (erythrocyte) and in series [3] were greater than 10000 nM, greater than 10000 nM and greater than 20000 nM, respectively.
Consider `CCOC(=O)C1=C(C)NC2=C(C(=O)OC(c3ccc(OC)c(OC)c3)C2)C1c1ccc(Cl)cc1C` (stereo in doubt; 38A), for which the EC50 is 992 nM in series [1] (erythrocyte), greater than 4700 nM in series [2] (erythrocyte) and greater than 20000 nM in series [3].
`CCOC(=O)C1=C(C)NC2=C(C(=O)OC(c3ccc(OC)c(OC)c3)C2)C1c1cccc(Cl)c1` (configuration not stated): the EC50 is greater than 10000 nM in series [1] (setting [4]), greater than 10000 nM in series [2] (setting [5]) and greater than 20000 nM in series [3].
As to `COc1ccc(C2CC(=O)C3=C(C2)NC(C)=C(C(=O)O)C3c2ccccc2Cl)cc1OC` (stereo in doubt; 27A), the figures for the EC50 in series [2] (setting [5]) and in series [3] were greater than 15000 nM and greater than 20000 nM, respectively.
For `CCOC(=O)C1=C(C)NC2=C(C(=O)CC(c3ccc(Cl)c(OC)c3)C2)C1c1ccc(Cl)cc1C` (stereo in doubt; 41A), the EC50 was 385 nM in series [1] (erythrocyte), 550 nM in series [2] (erythrocyte) and greater than 20000 nM in series [3].
For the molecule `CCOC(=O)C1=C(C)NC2=C(C(=O)OC(c3ccc(OC)c(OC)c3)C2)C1c1ccc(OC)cc1` (configuration not stated), the EC50 in series [1] (setting [4]) was greater than 10000 nM; in series [2] (setting [5]) it was greater than 10000 nM; in series [3] it was greater than 20000 nM.
In turn, `COc1cc([C@@H]2c3cc4c(cc3[C@H](O)[C@H]3COC(=O)[C@H]23)OCO4)cc(OC)c1OC` [PODOFILOX] displayed an EC50 in series [3] of 250 nM.
Turning to `CCOC(=O)C1=C(C)NC2=C(C(=O)OC(c3ccccc3)C2)C1c1ccccc1Cl` (stereo in doubt; 17A), the EC50 in series [2] (setting [5]) was greater than 9500 nM; in series [3] it was greater than 20000 nM.
On to `COC(=O)C1=C(C)NC2=C(C(=O)OC(c3ccc(OC)c(OC)c3)C2)C1c1ccccc1Cl` (stereo in doubt; 28B), for which the EC50 in series [1] (erythrocyte) was found to be 417 nM; in series [2] (erythrocyte), 798 nM.
As to `CCOC(=O)C1=C(C)NC2=C(C(=O)CC(c3ccc(OC)c(OC)c3)C2)C1c1ccccc1Cl` (mixture of isomers), the results for the EC50 in series [1] (erythrocyte) and in series [2] (erythrocyte) were 28 nM and 17.1 nM, respectively.
As to `CCOC(=O)C1=C(C)NC2=C(C(=O)OC(c3ccc(OC)c(OC)c3)C2)C1c1ccccc1C` (mixture of isomers), the EC50 was found to be 123 nM in series [1] (erythrocyte) and 72.7 nM in series [2] (erythrocyte).
Turning to `CCOC(=O)C1=C(C)NC2=C(C(=O)OC(c3ccc(OC)c(OC)c3)C2)C1c1ccccc1C` (stereo in doubt; 6B), the EC50 in series [1] (erythrocyte) was found to be 59.7 nM; in series [2] (erythrocyte), 38.5 nM.
For `COCC1=C(C(=O)OC)C(c2ccc(Cl)cc2C)C2=C(CC(c3ccc(OC)c(OC)c3)OC2=O)N1` (mixture of isomers), the EC50 was found to be 81.3 nM in series [1] (erythrocyte) and 112 nM in series [2] (erythrocyte).
`CCOC(=O)C1=C(c2ccccc2)NC2=C(C(=O)CC(c3ccc(OC)c(OC)c3)C2)C1c1ccccc1Cl` (stereo in doubt; 35B): the EC50 amounted to 46.7 nM in series [1] (erythrocyte) and 40.5 nM in series [2] (erythrocyte).
On to `CCOC(=O)C1=C(C)NC2=C(C(=O)OC(c3ccc(Cl)c(OC)c3)C2)C1c1ccccc1Cl` (mixture of isomers), for which the EC50 in series [1] (erythrocyte) turned out to be 345 nM; in series [2] (erythrocyte) it was 595 nM.
With `COC(=O)C1=C(C)NC2=C(C(=O)OC(c3ccc(OC)c(OC)c3)C2)C1c1ccccc1Cl` (mixture of isomers), the EC50 in series [1] (erythrocyte) and in series [2] (erythrocyte) was greater than 9400 nM each time.
On to `CCOC(=O)C1=C(C)NC2=C(C(=O)OC(c3ccc(OC)c(OC)c3)C2)C1c1ccccc1OC` (stereo in doubt; 9B), for which the EC50 in series [1] (erythrocyte) was greater than 5500 nM; in series [2] (erythrocyte), 2050 nM.
Consider `CCCOC(=O)C1=C(C)NC2=C(C(=O)OC(c3ccc(OC)c(OC)c3)C2)C1c1ccccc1Cl` (mixture of isomers), for which the EC50 is 1630 nM in series [1] (erythrocyte) and 1670 nM in series [2] (erythrocyte).
Regarding `CCCC1=C(C(=O)OCC)C(c2ccc(Cl)cc2C)C2=C(CC(c3ccc(Cl)c(OC)c3)CC2=O)N1` (mixture of isomers), the EC50 in series [1] (erythrocyte) turned out to be 48.9 nM; in series [2] (erythrocyte), 27.9 nM.

Values taken from ChEMBL document CHEMBL5579840, “Optimization of diastereomeric dihydropyridines as antimalarials” (Eur J Med Chem, 2024).
